According to patent US20230263897A1, “CONJUGATE OF GALNAC AND SAPONIN, […] COMPOSITION COMPRISING SAID CONJUGATE AND A GALNAC-OLIGO[…]” (SAPREME TECHNOLOGIES B.V., priority 2020, published 2023):
pIC50: −log10 of the molar value. Like-named read-outs stand apart in the source and are kept apart here. [BNANC] = BNA^NC bridged nucleic acid sugar; d = 2'-deoxy (DNA)

What was measured:
[1] = system: HSP27; assay: HSP27 gene silencing (qPCR) in Huh7 cells; assay type: cell-based, human; conditions: + 4000 nM SO1861-EMCH
Protocol: (§1) HSP27 gene silencing in HepG2 and Huh7 cells was determined.
(§2) RNA from cells was isolated and analysed according to standard protocols (Biorad). qPCR primers that were used are indicated in Table A2.

[2] = system: HSP27; assay: HSP27 gene silencing (qPCR) in HepG2 cells; assay type: cell-based, human; conditions: + 4000 nM SO1861-EMCH
Protocol: as §1, §2

[3] = system: primary human hepatocytes; assay: Cell viability assay (CTG) on primary human hepatocytes; conditions: for pIC50 / effect on cell viability: primary human hepatocytes
Protocol: The ‘trivalent-GalNAc’ as depicted in FIGS. 1 and 8 is a typical (GalNAc)3Tris conjugate suitable for coupling to an effector molecule or to saponin. […] Primary hepatocytes express receptor at high density—allow for targeting.
Primary hepatocytes which highly express ASGPR1 (ASGPR1*) and hepatocyte cells of cell-line Huh7 (ASGPR1^+/−) were treated with a concentration range of trivalent-GalNAc-SO1861 (TrivalentGalNAc-SPT001), either or not in the presence of 10 μM CD71-saporin (monoclonal antibody OKT-9 targeting CD71 conjugated to the protein toxin saporin; FIG. 30D).
After treatment the cells were incubated for 72 hr at 37° C. before the cell viability was determined by a CTG-assay, performed according to the manufacturer's instruction (CellTiter-Glo® 2.0 Cell Viability Assay, Promega). Briefly, the cell plate was first equilibarated to RT for 30 minutes. Next, to each well containing 120 μL treatment media 120 μL CTG solution was added. The plate briefly mixed (10 sec, 600 rpm) and incubated for approximately 10 minutes in the dark at RT. Subsequently, the luminescence signal was measured on a Spectramax ID5 plate reader (Molecular Devices). For quantification, the background signal of ‘medium only’ wells was subtracted from all other wells before the cell viability percentage of treated/untreated cells was calculated by dividing the background corrected signal of treated wells over the background corrected signal of the untreated wells (×100).
Cryopreserved primary human hepatocytes (Cytes Biotechnologies S.L., Spain) were thawed in hepatocyte thawing media (Cytes Biotechnologies S.L., Spain). Cells were re-suspended in hepatocyte plating media (Cytes Biotechnologies S.L., Spain). Cells were seeded onto collagen-I coated plates at a density of 215.600 cells/well or 66.600 cells/well for the 48 or 96-well plates (Greiner BioOne). Cells were pre-cultured for 4-6 hrs at 37° C. allowing for cell attachment to cell culture plates before the start of treatment. Plating medium was replaced by 315 μl or 108 μl maintenance media (Cytes Biotechnologies S.L., Spain), after which conjugates were added from a 10× concentrated stock solution in PBS. Plates were incubated for 72 hr at 37° C. being harvested for gene expression and cell viability analysis.

[4] = system: ApoB; assay: ApoB gene silencing (qPCR) in HepG2 cells; assay type: cell-based, human
Protocol: (§3) ApoB gene silencing in HepG2 (ASGPR1*) cells or Huh7 (ASPGR1^+/−) was determined. […] Thus, a conjugate comprising a labile bond between any two molecules forming the conjugate or comprised by the conjugate, will be cleaved at a position in the labile linker, therewith dissociating the two linked or bound molecules. An example is the cleavage of a hydrazone bond under acidic conditions as apparent in the endosome and lysosome of mammalian cells such as human cells.
(§4) ApoB gene silencing HepG2 (ASGPR1*) cells and Huh7 (ASPGR1^+/−) cells was determined.
as §2

[5] = system: ApoB; assay: ApoB gene silencing (qPCR) in Huh7 cells; assay type: cell-based, human; conditions: for pIC50: + 4000 nM trivalent-GalNAc-L-SO1861
Protocol: as §3, §4, §2

[6] = system: ApoB RNA; assay: ApoB RNA expression analysis on primary human hepatocytes; assay type: cell-based
Protocol: RNA from cells was isolated using TRI Reagent® Solution (Thermo Scientific) according to the manufacturer's instruction. Conversion into cDNA was performed using iScript™ cDNA Synthesis Kit (BioRad) using standard protocols. ApoB expression levels and levels of specific hepatocyte housekeeping genes were determined using quantitative real-time PCR assays (qRT-PCR) using iTaq™ Universal SYBR® Green Supermix (BioRad) and the Light Cycler 480 (Roche Diagnostics, Rotkreuz, Switzerland) with specific DNA primers, listed in Table A4. Analysis was done by the ΔCt method to determine ApoB expression relative to 2 hepatocyte-specific housekeeping control mRNAs. Each analysis reaction was performed in triplicate.

[7] = system: ApoB protein; assay: ApoB protein expression by Huh7 cells; assay type: cell-based, human
[8] = + 4000 nM trivalent-GalNAc-L-SO1861

Work on “trivalent-GalNAc-L-HSP27BNA: HSP27BNA (SEQ ID NO: 1) conjugated to trivalent-GalNAc, labile conjugation, FIG. 6 (antisense GGCACAGCCAGTGGCG; sugars from the 5' end [BNANC]3 d10 [BNANC]3, all phosphorothioate, methylation of C not given here; further chemistry not fully specified)” yielded a pIC50 [1] of 8.52 and a pIC50 [2] of 10.00.

“trivalent-GalNAc-S-HSP27BNA: HSP27BNA (SEQ ID NO: 1) conjugated to trivalent-GalNAc, stable conjugation, FIG. 7 (GGCACAGCCAGTGGCG; sugars from the 5' end [BNANC]3 d10 [BNANC]3, all phosphorothioate, methylation of C not given here; further chemistry not fully specified)” gave a pIC50 [1] of 8.52 and a pIC50 [2] of 10.00.

`CC(=O)OC1C(C)OC(OC2C(C)OC(OC(=O)[C@]34CCC(C)(C)CC3C3=CCC5[C@@]6(C)CC[C@H](OC7OC(C(=O)O)C(O)C(OC8OCC(O)C(O)C8O)C7OC7OC(CO)C(O)C(O)C7O)[C@@](C)(C=O)C6CC[C@@]5(C)[C@]3(C)C[C@H]4O)C(OC3OC(C)C(OC4OCC(O)C(OC5OC(CO)C(O)C(O)C5O)C4O)C(O)C3O)C2O)C(O)C1OC1OCC(O)C(O)C1O` (stereo partly shown) [SO1861, reference compound] showed a pIC50 ([3]; read-out: SO1861 IC50 for CD71-saporin mediated cell killing, + 10 μM CD71-saporin (non-effective concentration)) of 6.70.

With “trivalent-GalNAc-L-ApoBBNA: ApoBBNA (SEQ ID NO: 2) conjugated to trivalent-GalNAc, labile conjugation, FIG. 6 (antisense GCCTCAGTCTGCTTCGCACC; BNA oligo, pattern not given here, trivalent GalNAc via labile linker, position not given here)” the “effect on cell viability” value ([3]; + 250 nM (GalNAc)3-SO1861, FIG. 24 B) was “without affecting cell viability significantly”, the “effect on cell viability” value ([3]; alone, FIG. 24 B) was “no effects on cell viability were observed” and the pIC50 ([3]; read-out: IC50 decreased cell viability, + 2000 nM SO1861-EMCH, FIG. 24 B) was 6.22. The pIC50 ([4]; + 4000 nM SO1861-EMCH) was 8.00, the pIC50 [4, 8] was 7.30 and the pIC50 [5] was 6.15. For the same compound, the pIC50 ([6]; + 250 nM (GalNAc)3-SO1861) was 7.82, the pIC50 ([6]; + 2000 nM SO1861-EMCH) was 8.10 and the pIC50 ([6]; alone) was less than 6.00.

Work on “trivalent-GalNAc-S-ApoBBNA: ApoBBNA (SEQ ID NO: 2) conjugated to trivalent-GalNAc, stable conjugation, FIG. 7 (antisense GCCTCAGTCTGCTTCGCACC; sugars from the 5' end [BNANC]5 d10 [BNANC]5, all phosphorothioate, methylation of C not given here; further chemistry not fully specified)” yielded a pIC50 ([4]; + 4000 nM SO1861-EMCH) of 8.00, a pIC50 [4, 8] of 7.30 and a pIC50 [5] of 6.15.

With “TrivalentGalNAc-ApoBBNA: conjugate of trivalent GalNAc and the ApoB antisense BNA oligonucleotide ApoBBNA (SEQ ID NO: 2); L or S linker not stated (antisense GCCTCAGTCTGCTTCGCACC; sugars from the 5' end [BNANC]5 d10 [BNANC]5, all phosphorothioate, methylation of C not given here; trivalent GalNAc conjugated via linker, attachment via 5'-thiol C6 linker implied)” the “lowering of ApoB mRNA expression” value ([5]; + 300 nM TrivalentGalNAc-SPT001, FIG. 31B) was “Neither TrivalentGalNAc-ApoBBNA, nor the combination of TrivalentGalNAc-ApoBBNA and TrivalentGalNAc-SPT001 induce lowering of the ApoB mRNA expression”, the “lowering of ApoB mRNA expression” value ([5]; alone, FIG. 31B) was “Neither TrivalentGalNAc-ApoBBNA, nor the combination of TrivalentGalNAc-ApoBBNA and TrivalentGalNAc-SPT001 induce lowering of the ApoB mRNA expression” and the “lowering of ApoB protein expression” value ([7]; + 300 nM TrivalentGalNAc-SPT001, FIG. 32B) was “Neither TrivalentGalNAc-ApoBBNA, nor the combination of TrivalentGalNAc-ApoBBNA and TrivalentGalNAc-SPT001 induce lowering of the ApoB protein expression”. For the same compound, the “lowering of ApoB protein expression” value ([7]; alone, FIG. 32B) was “Neither TrivalentGalNAc-ApoBBNA, nor the combination of TrivalentGalNAc-ApoBBNA and TrivalentGalNAc-SPT001 induce lowering of the ApoB protein expression”.

In the case of `CC(=O)OC1C(C)OC(OC2C(C)OC(OC(=O)[C@]34CCC(C)(C)CC3C3=CCC5[C@@]6(C)CC[C@H](OC7OC(C(=O)O)C(O)C(OC8OCC(O)C(O)C8O)C7OC7OC(CO)C(O)C(O)C7O)[C@@](C)(/C=N/NC(=O)CCCCCN7C(=O)C=CC7=O)C6CC[C@@]5(C)[C@]3(C)C[C@H]4O)C(OC3OC(C)C(OC4OCC(O)C(OC5OC(CO)C(O)C(O)C5O)C4O)C(O)C3O)C2O)C(O)C1OC1OCC(O)C(O)C1O` (stereo partly shown) [SO1861-EMCH], the “factor of potency increase when cell viability of liver cells is considered” value ([3]; primary hepatocytes, + 10 μM CD71-saporin) was roughly 10 factor.
